In data set [1] the test system is ApoE-deficient mice. Briefly: Serum analyses (cholesterol, triglycerides, bile acids, IL-6, haptoglobin, glucose, LPS). Type of data set: in vivo, mouse. The text has this: (§1) Four cohorts of mice were used in these studies (FIGS. 8A and 9A). Cohorts 1 and 2 were devoted to the in vivo and ex vivo characterization of TNAP-associated plaque calcification. 6-week-old ApoE-deficient male mice were received at the animal facility and placed in conventional cages with 5 mice per cage. Mice were maintained on a 12-hrs light-dark cycle (7:00 am-7:00 pm) and were supplied with food and water ad libitum. From 10 weeks of age, they were fed ad libitum with a high fat diet (HFD, D12108C, Research Diets, New Brunswick, USA) containing 40% fat (kcal) and 1.25% cholesterol (weight). In cohort 1, 8 mice were sacrificed every 2 weeks between weeks 17 to 31, for histological and molecular analyses. Total body weight was measured weekly after starting the HFD. The sacrifice was done after anesthesia with isoflurane and intracardiac blood puncture by CO2 inhalation. Tissues were harvested as described below. The abdominal aorta was used for quantitative polymerase chain reaction (PCR) analyses. Mice from cohort 2 were used to analyze aorta calcification with ^18F—NaF μPET and μCT and to compare the in vivo data with the ex vivo results obtained in cohort 1. Animals were transferred from the animal facility to the Cermep imaging platform. Cohorts 3 and 4 were used to determine in vivo and ex vivo the impact of TNAP inhibition on the vasculature, liver, bones, and kidneys. According to the results obtained in cohorts 1 and 2, TNAP inhibitor SBI-425 (30 mg/kg/day, formulated as a food admixture in the HFD) was administered in a preventive manner from 10 weeks of age. Treatment was stopped at 25 weeks or 31 weeks of age. Plaque calcification was analyzed at 25 weeks, and possible side effects of TNAP inhibition were explored in mice aged 31 weeks. Mice in cohort 3 (2 groups of 13 mice) were used for ex vivo analysis, and mice in cohort 4 (2 groups of 12 mice) for in vivo imaging and ex vivo analyses.
After overnight fasting, blood was collected from mice by cardiac puncture under anesthesia with isoflurane. Serum was obtained through centrifugation of the blood for 15 min at 1,500 g at 4° C. and stored at −80° C. before analysis. Concentration of total cholesterol and triglycerides were measured using a colorimetric (MAK043, Sigma) and a fluorimetric assay (MAK266, Sigma), respectively. Total bile acids were assayed with a commercial enzyme-based colorimetric kit (Abcam Ab239702). Serum IL-6 and haptoglobin levels were determined using the commercially available ELISA kits (Fischer Scientific 10110623 and Abcam 157714, respectively). The alkaline phosphatase activity assay was performed in a 96-well plate. Briefly, sera were mixed with a concentrated buffer at a ratio of 2.85:1 (vol/vol) in order to get final concentration of 0.56 M 2-amino-2-methyl-1-propanol buffer pH 10.5, 1 mM MgCl2 and 10 mM p-nitrophenylphosphate. Absorbance was acquired for 5 min at 405 nm (Tecan plate reader). The slope was calculated to determine TNAP activity levels in each sample and normalized to protein amounts measured with the BCA protein assay (Pierce).

The subject of data set [2] is ApoE-deficient mice. Briefly: Tolerability: mortality and body weight. The format is in vivo, mouse. As to conditions: 30 mg/kg/day, treatment up to 21 weeks.
Text: as §1, with “Cohorts 3 and 4 were used to determine in vivo and ex vivo the impact of TNAP inhibition on the vasculature, liver, bones, and kidneys. According to the results obtained in cohorts 1 and 2, TNAP inhibitor SBI-425 (30 mg/kg/day, formulated as a food admixture in the HFD) was administered in a preventive manner from 10 weeks of age. Treatment was stopped at 25 weeks or 31 weeks of age.” left out, “Mice in cohort 3 (2 groups of 13 mice) were used for ex vivo analysis, and mice in cohort 4 (2 groups of 12 mice) for in vivo imaging and ex vivo analyses.” left out

Setting [3] is: ApoE-deficient mice, 30 mg/kg/day, 25 weeks, fasting, vs control.
The mark [4] stands for this setting: ApoE-deficient mice, 30 mg/kg/day, 25 weeks, vs control.

Experimental findings from patent US20230149374A1, “METHODS AND COMPOSITIONS FOR TREATING ATHEROSCLEROSIS” (Sanford Burnham Prebys Medical Discovery Institute, priority 2021, published 2023) are described below.

“Also recorded” adds a separate entry of the source.

As to `COc1ccc(Cl)cc1S(=O)(=O)Nc1cncc(C(N)=O)c1` [SBI-425], in the data set with ApoE-deficient mice [1] (setting [3]), the “serum levels of cholesterol” value was “significantly decreased” and the “serum levels of triglycerides (TGs)” value is “significantly decreased”. In the data set with ApoE-deficient mice [1] (setting [4]), the fasting glycemia result is recorded as “did not modulate”; the “serum IL-6 levels” value is on record as “reduced serum IL-6 levels, although not significantly”; the “serum bile acids levels” value is listed as “did not change”; the serum haptoglobin levels result was “nor changed”. For the same molecule, the systemic inflammation result in the data set on ApoE-deficient mice [1] (mouse experiments, administration for several months) is recorded as “did not significantly change”. Further, in the data set on ApoE-deficient mice [2], the body weight entry is reported as “no effect; also recorded: did not significantly change” and the mortality entry is recorded as “no effect”.
